The values below come from patent publication US20030040476A1, “EAG gene” (priority 1999, published 2003).

The subject of experiment [1] is hEAG2 channel. The experiment in a line: Modulation of hEAG2 current during progesterone-induced G2-M progression in Xenopus oocytes. The experiment is classed as cell-based, human. To be noted: oocytes treated with 20 μg/ml progesterone while recording; homogenous at all voltages tested. How it is done: (§1) For Xenopus oocyte expression, the cDNA was cloned into a suitable vector containing the translation initiation sequences and the polyadenylation sequence of Xenopus b-globin. This optimizes the expression in oocytes. The template was prepared by linearization of the construct, and RNA was synthesized using the T7 promotor. The synthetic RNA was injected into stage V-VI oocytes using standard techniques (approximately 50 ng/oocyte). The currents expressed were then measured 48-96 hours after the injection using two-electrode voltage clamp.
The modulation of hEAG2 during cell cycle was determined using the natural cell cycle arrest of oocytes in the G2 stage of the first meiotic division. The progression of the cycle through the G2-M boundary is triggered by progesterone. We have treated the oocytes with 20 μg/ml progesterone while recording the hEAG2 currents. […] Importantly, the reduction was homogenous at all voltages tested (as opposite to what happens with EAG1).

The target of experiment [2] is T1, hEAG2 channel (Homo sapiens, UniProt Q8NCM2).
T1 construct: expressed in transfected cells; host or cells: Xenopus oocytes (stage V-VI), injected with synthetic RNA
T1 sequence (Q8NCM2 1-988): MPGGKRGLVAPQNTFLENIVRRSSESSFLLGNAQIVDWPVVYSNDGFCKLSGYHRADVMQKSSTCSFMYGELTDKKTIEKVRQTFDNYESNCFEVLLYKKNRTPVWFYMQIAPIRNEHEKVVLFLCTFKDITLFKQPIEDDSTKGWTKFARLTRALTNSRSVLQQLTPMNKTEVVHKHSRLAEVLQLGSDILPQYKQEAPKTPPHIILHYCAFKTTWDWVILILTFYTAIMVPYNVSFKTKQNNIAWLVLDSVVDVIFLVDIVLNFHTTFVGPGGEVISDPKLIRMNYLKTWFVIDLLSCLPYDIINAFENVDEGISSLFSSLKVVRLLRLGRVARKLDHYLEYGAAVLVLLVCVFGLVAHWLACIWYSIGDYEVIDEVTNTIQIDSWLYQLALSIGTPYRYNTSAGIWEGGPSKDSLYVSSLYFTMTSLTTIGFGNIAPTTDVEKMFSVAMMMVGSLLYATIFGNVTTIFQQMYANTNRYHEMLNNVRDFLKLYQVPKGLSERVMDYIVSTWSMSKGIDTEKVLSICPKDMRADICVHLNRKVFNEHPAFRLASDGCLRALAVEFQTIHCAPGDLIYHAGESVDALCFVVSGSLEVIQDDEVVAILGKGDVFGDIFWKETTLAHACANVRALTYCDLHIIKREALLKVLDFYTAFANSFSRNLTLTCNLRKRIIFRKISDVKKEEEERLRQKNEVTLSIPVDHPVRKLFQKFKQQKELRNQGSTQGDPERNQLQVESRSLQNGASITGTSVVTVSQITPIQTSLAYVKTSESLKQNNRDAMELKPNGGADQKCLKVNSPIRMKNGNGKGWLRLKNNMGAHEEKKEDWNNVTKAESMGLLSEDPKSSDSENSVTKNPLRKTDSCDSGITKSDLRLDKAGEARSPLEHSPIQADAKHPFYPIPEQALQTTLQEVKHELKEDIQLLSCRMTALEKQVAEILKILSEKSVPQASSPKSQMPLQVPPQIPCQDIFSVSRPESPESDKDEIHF
The experiment in a line: Magnesium dependence of hEAG2 activation, two-electrode voltage clamp in Xenopus oocytes. Format: cell-based. How it is done: as §1
The depencence on the holding potential of the time constant of activation was determined using a conditioning potential between −150 and −60 mV during 5 s prior to the test pulse. The time required to achieve 80% of the maximal amplitude in the test pulse was then plotted against the conditioned potential, and fitted with a Boltzmann distribution. Extracellular magnesium is known to slow down the activation of EAG1. We determined the magnesium dependence of hEAG2 using the protocol descibed above in the presence of different external magnesium concentrations. The value of Vhalf obtained from the fit was plotted against the magnesium concentration, giving a semimaximal effect of extracellular magnesium at 80 μM (FIG. 7).
A general note: In two-electrode clamp one electrode senses voltage and the other passes current.

As for `CC(=O)[C@H]1CC[C@H]2[C@@H]3CCC4=CC(=O)CC[C@]4(C)[C@H]3CC[C@]12C` [progesterone], the “effect on hEAG2 current amplitude” value in the experiment on hEAG2 channel [1] is “reduction of the current with time”.

For the compound `[Mg+2]` [magnesium], at hEAG2 channel [2] (hEAG2 in Xenopus oocytes, conditioning potential -150 to -60 mV for 5 s before test pulse, extracellular magnesium, read-out: apparent EC50 for the effect of magnesium (Vhalf of activation time versus Mg^2+ concentration)), the EC50 was determined as 80 µM. Further, the “slowing of activation in 2 mM Mg^2+ versus 200 μM Mg^2+” value at hEAG2 channel [2] (prepulse potential -60 mV, 2 mM versus 200 μM Mg^2+) was “three times slower”.
